Experimental data taken from paper PMC8480901 (PLoS ONE, 2021).
“And” between values parts separate entries of the source, which are not always exact repeats. Equal values may be shown once.

System: J774.2 mouse macrophages
Assay: LPS-induced cytokine and chemokine levels in J774.2 mouse macrophage cell supernatant (ELISA)
Format: cell-based
Conditions: for CXCL1 % reduction / CXCL1 [pg/mL] Mean / CXCL2 % reduction / CXCL2 [pg/mL] Mean / MMP9 % reduction / MMP9 [pg/mL] Mean: J774.2 cells; for CXCL1 % reduction / CXCL1 [pg/mL] Mean / CXCL2 % reduction / CXCL2 [pg/mL] Mean / MMP9 % reduction / MMP9 [pg/mL] Mean / CCl2, % reduction / CCl2, Mean / GM-CSF % reduction / GM-CSF Mean / IL-1β % reduction / IL-1β Mean / IL-6 % reduction / IL-6 Mean / TNF-α % reduction / TNF-α Mean / CCl2 / CXCL1 / GM-CSF / IL-1β / IL-6 / TNF-α: LPS; for CCl2, % reduction / CCl2, Mean / GM-CSF % reduction / GM-CSF Mean / IL-1β % reduction / IL-1β Mean / IL-6 % reduction / IL-6 Mean / TNF-α % reduction / TNF-α Mean / CCl2 / CXCL1 / GM-CSF / IL-1β / IL-6 / TNF-α: J774.2 supernatant; for CCl2 / CXCL1 / GM-CSF / IL-1β / IL-6 / TNF-α: individual replicate

CC[C@H]1OC(=O)[C@H](C)[C@@H](O[C@H]2C[C@@](C)(OC)[C@@H](O)[C@H](C)O2)[C@H](C)[C@@H](O[C@@H]2O[C@H](C)C[C@H](N(C)C)[C@H]2O)[C@](C)(O)C[C@@H](C)CN(C)[C@H](C)[C@@H](O)[C@]1(C)O [Azithromycin]
CXCL1 % reduction (compound 0.03 µM): -14% | CXCL1 [pg/mL] Mean (compound 0.03 µM): 29 pg/mL | CXCL2 % reduction (compound 0.03 µM): 36% | CXCL2 [pg/mL] Mean (compound 0.03 µM): 20828 pg/mL | MMP9 % reduction (compound 0.03 µM): -31% | MMP9 [pg/mL] Mean (compound 0.03 µM): 1243 pg/mL | CXCL1 % reduction (compound 0.1 µM): -29% | CXCL1 [pg/mL] Mean (compound 0.1 µM): 33 pg/mL | CXCL2 % reduction (compound 0.1 µM): 38% | CXCL2 [pg/mL] Mean (compound 0.1 µM): 20316 pg/mL | MMP9 % reduction (compound 0.1 µM): -12% | MMP9 [pg/mL] Mean (compound 0.1 µM): 1072 pg/mL | CXCL1 % reduction (compound 0.3 µM): -11% | CXCL1 [pg/mL] Mean (compound 0.3 µM): 28 pg/mL | CXCL2 % reduction (compound 0.3 µM): 29% | CXCL2 [pg/mL] Mean (compound 0.3 µM): 23099 pg/mL | MMP9 % reduction (compound 0.3 µM): -7% | MMP9 [pg/mL] Mean (compound 0.3 µM): 1027 pg/mL | CXCL1 % reduction (compound 1 µM): -18% | CXCL1 [pg/mL] Mean (compound 1 µM): 30 pg/mL | CXCL2 % reduction (compound 1 µM): 13% | CXCL2 [pg/mL] Mean (compound 1 µM): 28283 pg/mL | MMP9 % reduction (compound 1 µM): -11% | CXCL1 % reduction (compound 3 µM): -30% | CXCL1 [pg/mL] Mean (compound 3 µM): 33 pg/mL | CXCL2 % reduction (compound 3 µM): 51% | CXCL2 [pg/mL] Mean (compound 3 µM): 15868 pg/mL | MMP9 % reduction (compound 3 µM): -14% | MMP9 [pg/mL] Mean (compound 3 µM): 1088 pg/mL | CXCL1 % reduction (compound 10 µM): -51% | CXCL1 [pg/mL] Mean (compound 10 µM): 39 pg/mL | CXCL2 % reduction (compound 10 µM): 45% | CXCL2 [pg/mL] Mean (compound 10 µM): 18014 pg/mL | MMP9 % reduction (compound 10 µM): 11% | MMP9 [pg/mL] Mean (compound 10 µM): 860 pg/mL | CXCL1 % reduction (compound 30 µM): -135% | CXCL1 [pg/mL] Mean (compound 30 µM): 60 pg/mL | CXCL2 % reduction (compound 30 µM): 26% | CXCL2 [pg/mL] Mean (compound 30 µM): 23980 pg/mL | MMP9 % reduction (compound 30 µM): 47% | MMP9 [pg/mL] Mean (compound 30 µM): 539 pg/mL | CXCL1 % reduction (compound 100 µM): -128% | CXCL1 [pg/mL] Mean (compound 100 µM): 58 pg/mL | CXCL2 % reduction (compound 100 µM): 35% | CXCL2 [pg/mL] Mean (compound 100 µM): 21270 pg/mL | MMP9 % reduction (compound 100 µM): 70% | MMP9 [pg/mL] Mean (compound 100 µM): 332 pg/mL | levels of the measured LPS-induced cytokines, chemokines, or MMP-9 in supernatants (J774.2 mouse macrophages, concentrations tested (0.03 to 10 μM shown)): little to no reduction | CCl2, % reduction (0.03 µM): 18% | CCl2, Mean (0.03 µM): 29824 pg/mL | GM-CSF % reduction (0.03 µM): 64% | GM-CSF Mean (0.03 µM): 507 pg/mL | IL-1β % reduction (0.03 µM): -40% | IL-1β Mean (0.03 µM): 266 pg/mL | IL-6 % reduction (0.03 µM): 9% | IL-6 Mean (0.03 µM): 70233 pg/mL | TNF-α % reduction (0.03 µM): -11% | TNF-α Mean (0.03 µM): 1517 pg/mL | CCl2 (0.03 µM): 28757.8 pg/mL and 30890.3 pg/mL | CXCL1 (0.03 µM): 31.2 pg/mL and 27.2 pg/mL | GM-CSF (0.03 µM): 560.6 pg/mL and 452.6 pg/mL | IL-1β (0.03 µM): 258.52 pg/mL and 274.336 pg/mL | IL-6 (0.03 µM): 75760 pg/mL and 64706 pg/mL | TNF-α (0.03 µM): 1559.1 pg/mL and 1475.0 pg/mL | CCl2, % reduction (0.1 µM): 25% | CCl2, Mean (0.1 µM): 27461 pg/mL | GM-CSF % reduction (0.1 µM): 56% | GM-CSF Mean (0.1 µM): 616 pg/mL | IL-1β % reduction (0.1 µM): -16% | IL-1β Mean (0.1 µM): 222 pg/mL | IL-6 % reduction (0.1 µM): -5% | IL-6 Mean (0.1 µM): 81359 pg/mL | TNF-α % reduction (0.1 µM): -22% | TNF-α Mean (0.1 µM): 1665 pg/mL | CCl2 (0.1 µM): 26336.9 pg/mL and 28584.6 pg/mL | CXCL1 (0.1 µM): 32.4 pg/mL and 33.7 pg/mL | GM-CSF (0.1 µM): 657.0 pg/mL and 575.0 pg/mL | IL-1β (0.1 µM): 219.952 pg/mL and 223.825 pg/mL | IL-6 (0.1 µM): 80523 pg/mL and 82194 pg/mL | TNF-α (0.1 µM): 1716.4 pg/mL and 1614.2 pg/mL | CCl2, % reduction (0.3 µM): 20% | CCl2, Mean (0.3 µM): 29163 pg/mL | GM-CSF % reduction (0.3 µM): 72% | GM-CSF Mean (0.3 µM): 397 pg/mL | IL-1β % reduction (0.3 µM): 9% | IL-1β Mean (0.3 µM): 173 pg/mL | IL-6 % reduction (0.3 µM): 8% | IL-6 Mean (0.3 µM): 71113 pg/mL | TNF-α % reduction (0.3 µM): -8% | TNF-α Mean (0.3 µM): 1475 pg/mL | CCl2 (0.3 µM): 28466.3 pg/mL and 29859.2 pg/mL | CXCL1 (0.3 µM): 27.1 pg/mL and 29.7 pg/mL | GM-CSF (0.3 µM): 346.8 pg/mL and 446.6 pg/mL | IL-1β (0.3 µM): 173.433 pg/mL and 172.638 pg/mL | IL-6 (0.3 µM): 72113 pg/mL and 70113 pg/mL | TNF-α (0.3 µM): 1462.3 pg/mL and 1488.2 pg/mL
